Results: ChEMBL document CHEMBL3045474, “Natural products-based insecticidal agents 6. Design, semisynthesis, and insecticidal activity of novel monomethyl phthalate derivatives of podophyllotoxin against Mythimna separata Walker in vivo” (2010)
The source made the active and inactive calls. No cut-off for these calls is given here.

Columns and labels:
Mythimna separata [1] = test: In vivo insecticidal activity against pre-third-instar larval stage of Mythimna separata (Oriental armyworm) in corn leaves assessed as induction of molting to abnormal pupae at 1 mg/ml treated for 3 secs before larval infestation on corn leaves by leaf-dipping method; type: functional, organism-based
Mythimna separata [2] = test: In vivo insecticidal activity against pre-third-instar larval stage of Mythimna separata (Oriental armyworm) in corn leaves assessed as inhibition of adult emergence at 1 mg/ml treated for 3 secs before larval infestation on corn leaves by leaf-dipping method; type: functional, organism-based
Mythimna separata [3] = test: In vivo insecticidal activity against pre-third-instar larval stage of Mythimna separata (Oriental armyworm) in corn leaves assessed as inhibition of larval pupation at 1 mg/ml treated for 3 secs before larval infestation on corn leaves by leaf-dipping method; type: functional, organism-based
Mythimna separata [4] = test: In vivo insecticidal activity against pre-third-instar larval stage of Mythimna separata (Oriental armyworm) in corn leaves assessed as induction of loss of body liquid at 1 mg/ml treated for 3 secs before larval infestation on corn leaves measured after 48 hr by leaf-dipping method; type: functional, organism-based
Mythimna separata [5] = test: In vivo insecticidal activity against pre-third-instar larval stage of Mythimna separata (Oriental armyworm) in corn leaves assessed as induction of larval immobility at 1 mg/ml treated for 3 secs before larval infestation on corn leaves measured after 48 hr by leaf-dipping method; type: functional, organism-based
Mythimna separata [6] = test: In vivo insecticidal activity against pre-third-instar larval stage of Mythimna separata (Oriental armyworm) in corn leaves assessed as reduction in larval movement at 1 mg/ml treated for 3 secs before larval infestation on corn leaves measured after 24 hr by leaf-dipping method; type: functional, organism-based
Mythimna separata [7] = test: In vivo insecticidal activity against pre-third-instar larval stage of Mythimna separata (Oriental armyworm) in corn leaves assessed as corrected mortality rate at 1 mg/ml treated for 3 secs before larval infestation on corn leaves measured after 33 days by leaf-dipping method; type: functional; conditions: 792 h
Mythimna separata [8] = test: In vivo insecticidal activity against pre-third-instar larval stage of Mythimna separata (Oriental armyworm) in corn leaves assessed as corrected mortality rate at 1 mg/ml treated for 3 secs before larval infestation on corn leaves measured after 20 days by leaf-dipping method; type: functional; conditions: 480 h
Mythimna separata [9] = test: In vivo insecticidal activity against pre-third-instar larval stage of Mythimna separata (Oriental armyworm) in corn leaves assessed as corrected mortality rate at 1 mg/ml treated for 3 secs before larval infestation on corn leaves measured after 10 days by leaf-dipping method; type: functional; conditions: 240 h

Row | Compound | Activity (Mythimna separata [1]) | Activity (Mythimna separata [2]) | Activity (Mythimna separata [3]) | Activity (Mythimna separata [4]) | Activity (Mythimna separata [5]) | Activity (Mythimna separata [6]) | mortality at 1000 µg/mL (Mythimna separata [7]) | mortality at 1000 µg/mL (Mythimna separata [8]) | mortality at 1000 µg/mL (Mythimna separata [9])
1 | COC(=O)c1cccc([N+](=O)[O-])c1C(=O)O[C@@H]1c2cc3c(cc2[C@@H](c2cc(OC)c(OC)c(OC)c2)[C@H]2C(=O)OC[C@@H]21)OCO3 | Active | Active | Active | Active | Active | Active | 42.8% | 17.2% | 10%
2 | CC(=O)O[C@@H]1C[C@H](O)[C@@]23CO[C@@H](O)[C@]1(C)[C@@H]2C[C@@H](O)[C@]1(C)[C@@H]3C(=O)[C@H](OC(C)=O)[C@@]2(C)[C@H](c3ccoc3)C[C@H]3O[C@]321 [TOOSENDANIN] |  |  |  |  |  |  | 50% | 31% | 30%
3 | COC(=O)c1cccc([N+](=O)[O-])c1C(=O)N[C@@H]1c2cc3c(cc2[C@@H](c2cc(OC)c(OC)c(OC)c2)[C@H]2C(=O)OC[C@@H]21)OCO3 | Active | Active | Active | Active | Active | Active | 35.7% | 20.6% | 10%
4 | COC(=O)c1ccccc1C(=O)Oc1c(OC)cc([C@@H]2c3cc4c(cc3[C@@H](OC(=O)c3ccccc3C(=O)OC)[C@H]3COC(=O)[C@H]23)OCO4)cc1OC | Active | Active | Active | Active | Active | Active | 21.4% | 17.2% | 16.6%
5 | COC(=O)c1ccccc1C(=O)Oc1c(OC)cc([C@@H]2c3cc4c(cc3[C@@H](OC(=O)c3c(C(=O)OC)cccc3[N+](=O)[O-])[C@H]3COC(=O)[C@H]23)OCO4)cc1OC | Active | Active | Active | Active | Active | Active | 28.5% | 20.6% | 16.6%
6 | COc1cc([C@@H]2c3cc4c(cc3[C@H](O)[C@H]3COC(=O)[C@H]23)OCO4)cc(OC)c1OC [PODOFILOX] |  |  |  |  |  |  | 35.7% | 20.6% | 16.6%
7 | COC(=O)c1ccccc1C(=O)O[C@@H]1c2cc3c(cc2[C@@H](c2cc(OC)c(OC)c(OC)c2)[C@H]2C(=O)OC[C@@H]21)OCO3 | Active | Active | Active | Active | Active | Active | 38.5% | 20.6% | 10%
8 | COC(=O)c1cccc([N+](=O)[O-])c1C(=O)O[C@H]1c2cc3c(cc2[C@@H](c2cc(OC)c(OC)c(OC)c2)[C@H]2C(=O)OC[C@@H]21)OCO3 | Active | Active | Active | Active | Active | Active | 21.4% | 6.9% | 6.6%
9 | COC(=O)c1cccc([N+](=O)[O-])c1C(=O)O[C@H]1c2cc3c(cc2[C@@H](c2cc(OC)c(OC)c(OC)c2)[C@@]2(Cl)C(=O)OC[C@H]12)OCO3 | Active | Active | Active | Active | Active | Active | 46.4% | 41.3% | 30%
10 | COC(=O)c1ccccc1C(=O)O[C@H]1c2cc3c(cc2[C@@H](c2cc(OC)c(OC)c(OC)c2)[C@@]2(Cl)C(=O)OC[C@H]12)OCO3 | Active | Active | Active | Active | Active | Active | 53.5% | 31% | 16.6%
11 | COC(=O)c1ccccc1C(=O)O[C@H]1c2cc3c(cc2[C@@H](c2cc(OC)c(OC)c(OC)c2)[C@H]2C(=O)OC[C@@H]21)OCO3 | Active | Active | Active | Active | Active | Active | 35.7% | 24.1% | 16.6%
12 | COC(=O)c1ccccc1C(=O)O[C@H]1c2cc3c(cc2[C@@H](c2cc(OC)c(OC)c(OC)c2)[C@@H]2C(=O)OC[C@@H]21)OCO3 | Active | Active | Active | Active | Active | Active | 17.8% | 10.3% | 10%
13 | COC(=O)c1cccc([N+](=O)[O-])c1C(=O)O[C@H]1c2cc3c(cc2[C@@H](c2cc(OC)c(OC)c(OC)c2)[C@@H]2C(=O)OC[C@@H]21)OCO3 | Active | Active | Active | Active | Active | Active | 14.2% | 13.7% | 13.3%
14 | COC(=O)c1ccccc1C(=O)N[C@@H]1c2cc3c(cc2[C@@H](c2cc(OC)c(OC)c(OC)c2)[C@H]2C(=O)OC[C@@H]21)OCO3 | Active | Active | Active | Active | Active | Active | 42.8% | 10.3% | 6.6%
